In US20230174526A1, “BENZOTHIAZOLYL BIARYL COMPOUND, AND PREPARATION METHOD AND USE” (SHANGHAI RINGENE BIOPHARMA CO., LTD., priority 2020, published 2023):
Read-outs that look alike come from different tables or passages of the source.

Tests used:
[1] = test system: MiaPaca-2 cells; assay: Proliferation test method 2 (3D, Cell Titer Glo 3D), MiaPaca-2; format: cell-based; details: Homo sapiens, MIA PaCa-2, 96 h, read-out: IC50 cell proliferation inhibitory activity against MiaPaca-2
Method: (§1) Test method 2 (3D): The tumor cells in the logarithmic growth phase were diluted with culture solution to a certain concentration and inoculated on the 96-well plate on the ultra-low attachment surface, and the culture medium was 80 µL/well. Cells were incubated overnight at 37° C. in a humidity chamber. On the second day, a series of diluted test compounds (10 concentrations, 3 times dilution) were added to the plate, 20 µL/well, incubated in an incubator for 96h.The plates are removed and placed at room temperature and incubated with an equal volume of Cell Titer Glo®3D reagent for 1 h. The signal is detected by the En Vision™ plate reader. […] A four-parameter nonlinear regression curve was fitted to the percent inhibition for each concentration of the compound and the IC50 was calculated.

[2] = test system: NCI-H358 cells; assay: Proliferation test method 2 (3D, Cell Titer Glo 3D), NCI-H358; format: cell-based; details: Homo sapiens, NCI-H358, 96 h, read-out: IC50 cell proliferation inhibitory activity against NCI-H358
Method: as §1

[3] = test system: MiaPaca-2 cells (pancreatic cancer); assay: Proliferation test method 1 (2D, MTT), MiaPaca-2; format: cell-based; details: 5-7 days, read-out: IC50/nM proliferation inhibitory activity on MiaPaca-2 cells
Method: (§2) Test method 1 (2D):NCI-H358 (lung cancer) and MiaPaca-2 cells (pancreatic cancer) cells (100 µL/well, 20,000 cells/mL) were inoculated in 96-well culture plates supplemented with 10% fetal bovine serum and 1% penicillin/streptomycin sulfate, respectively.Using 0.5% dimethyl sulfoxide as a blank control, cells were treated with a solution of the compound to be tested at a starting concentration of 10 µM, tripled diluted testing solution of the compound in eight gradients were used to treat cells, and then incubated in a 5% CO2 incubator for a certain period of time (5-7 days).At the end of incubation, 10 µL of MTT stock solution (5 mg/mL) was added to each well.The culture plates were incubated at 37° C. for 4 h and then the medium was removed.Dimethyl sulfoxide (100 µL) was added to each well and then shaken sufficiently. The absorbance of the product formazanwas measured at 570 nm on the Thermo Scientific Varioskan Flash multimode reader.IC50 values were obtained by fitting dose-response data into a three-parameter nonlinear regression model using GraphPad Prism 6.0 software.

[4] = target: T1, KRAS^G12C/SOS1 (Homo sapiens, UniProt P01116, G12C); assay: KRAS^G12C/SOS1 protein-protein interaction Binding assay (CisBio kit); details: class symbols
T1 construct: purchased CisBio
T1 sequence (P01116 1-188 isoform P01116-2 G12C): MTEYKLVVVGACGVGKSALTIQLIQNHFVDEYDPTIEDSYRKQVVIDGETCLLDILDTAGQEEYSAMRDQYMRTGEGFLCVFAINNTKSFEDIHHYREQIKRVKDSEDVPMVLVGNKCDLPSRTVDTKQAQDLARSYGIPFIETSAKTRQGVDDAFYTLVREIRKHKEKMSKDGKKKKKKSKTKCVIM
Method: CisBio’s KRAS^G12C/SOS1 kit was used to test the efficacy of the compound on inhibiting the protein-protein interaction between SOS1 and KRAS^G12Cby Binding assay.Results were expressed as IC50values.
Test methods: (1) the test compound was tested at a concentration of 1000 nM. Diluted to 3-fold diluted compound of a 200-fold final concentration of 100% DMSO solution in a 384-well plate at 10 concentrations. 50 nL of 200-fold final concentration of compound was transferred to the destination plate 384 well plate using a dispenser Echo 550.50 nL of 100% DMSO was added to the negative control wells and positive control wells; (2) 4-fold final concentration of Tag1 SOS1 solution was prepared using Diluent buffer; (3) 2.5 µL of 4-fold final concentration of Tag1 SOS1 solution was added to the 384-well plate; (4) 4-fold final concentration of Tag2 KRAS^G12C solution was prepared using Diluent buffer; (5) 2.5 µL of 4-fold final concentration of Tag2 KRAS^G12C solution was added to compound wells and positive control wells, respectively; 2.5 µL of diluent buffer was added to negative control wells; (6) the 384-well plate was centrifuged at 1000 rpm for 30 seconds, shaken and mixed, and incubated at room temperature for 15 min; (7) 1-fold final concentration of Anti Tag1 TB3+ solution and 1-fold final concentration of Anti Tag2 XL665 solution were prepared with Detection buffer, and 5 µL of the mixture was added to each well after mixing the two solutions; (8) the 384-well plate was centrifuged at 1000 rpm for 30 seconds, shaken and mixed, and incubated at room temperature for 120 minutes; (9) the Envision enzyme marker was used to read
Em665/620; (10) data analysis, calculation formula; where Min signal is the mean value of negative control wells, Max signal is the mean value of positive control wells.The log value of concentration was used as the X-axis and the percentage inhibition as the Y-axis to fit the quantitative efficacy curve using the log(inhibitor) vs. response Variable slope of the quantitative efficacy curve of the analytical software GraphPad Prism 5 to derive the IC50 value of each compound on the enzyme activity.The fitting formula was: Y=Bottom+(Top Bottom)/(1+10^A((LogIC50X)^∗ HillSlope)).

[5] = test system: phosphorylated ERK levels of NCI-H358; assay: ERK phosphorylation (western blot), H358; format: cell-based; details: Homo sapiens, 3 h
Method: (§3) Test method 3 (ERK phosphorylation): Miapaca-2 or H358 cells were inoculated at certain concentrations in 96-well plates and incubated overnight at 37° C., 5% CO2 in a cell culture incubator, and serial dilutions of the test compound (5 concentrations, 3-fold dilution) were added to the plates the next day for 24 h (Miapaca-2) or 3 h (H358), then lysis solution containing protease and phosphatase inhibitor were added to lyse the cells to extract proteins and western blot method was used to detect the level of p-ERK.

[6] = test system: phosphorylated ERK levels of MiaPaca-2; assay: ERK phosphorylation (western blot), MiaPaca-2; format: cell-based; details: Homo sapiens, MIA PaCa-2, 24 h
Method: as §3

[7] = test system: NCI-H358 (lung cancer) cells; assay: Proliferation test method 1 (2D, MTT), NCI-H358; format: cell-based; details: Homo sapiens, 5-7 days, read-out: IC50 proliferation inhibitory activity against NCI-H358
Method: as §2

For C=CC(=O)N1CCN(c2nc(NC[C@@H]3CCCN3C)nc3c(F)c(-c4ccc(F)c5sc(N)nc45)c(Cl)cc23)CC1 [Example 2, 1-(4-(7-(2-Amino-7-Fluorobenzo[d]Thiazol-4-yl)-6-Chloro-8-Fluoro-2-((((S)-1-Methylpyrrolidin-2-yl)Methyl)Amino)Quinazolin-4-yl)Piperazin-1-yl)Prop-2-En-1-One], the IC50 [1] was < 200 nM, the IC50 [2] was < 200 nM and the IC50 ([3]; Homo sapiens, MIA PaCa-2, 2D) was 13.2 nM. The IC50 [4] was < 50 nM.

With C=CC(=O)N1CCN(c2c(C#N)c(NCCC(=O)N(C)C)nc3c(F)c(-c4ccc(F)c5sc(N)nc45)c(Cl)cc23)CC1 [Example 22, 3-((4-(4-Acryloylpiperazin-1-yl)-7-(2-Amino-7-Fluorobenzo [d] Thiazol-4-yl)-6-Chloro-3-Cyano-8-Fluoroquinolin-2-yl) Amino)-N,N-Dimethylpropanamide] the IC50 ([3]; Homo sapiens, MIA PaCa-2, 2D) was 0.93 nM and the IC50 [4] was 50 to 200 nM.

C=C(F)C(=O)N1C[C@@H]2C(=O)N(C)c3cnc4c(F)c(-c5ccc(F)c6sc(N)nc56)c(Cl)cc4c3N2C[C@H]1C [Example 28, (2R,4aR)-10-(2-Amino-7-Fluorobenzo[d]Thiazol-4-yl)-11-Chloro-9-Fluoro-3-(2-Fluoroacryloyl)-2,6-Dimethyl-2,3,4,4a-Tetrahydro-1H-Pyrazin [1′,2′:4,5] Pyrazin [2,3-c] Quinolin-5(6H)-one] showed an IC50 ([3]; Homo sapiens, MIA PaCa-2, 2D) of 63.2 nM and an IC50 [4] of 50 to 200 nM.

For C=CC(=O)N1CCN(c2nc(OC[C@@H]3C[C@@H](O)CN3C)nc3c(F)c(-c4ccc(F)c5sc(N)nc45)c(Cl)cc23)CC1 [Example 24, 1-(4-(7-(2-Amino-7-Fluorobenzo[d]Thiazol-4-yl)-6-Chloro-8-Fluoro-2-(((2S,4R)-4-Hydroxy-1-Methylpyrrolin-2-yl) Methoxy) Quinazolin-4-yl) Piperazin-1-yl) Prop-2-En-1-One], the IC50 ([3]; Homo sapiens, MIA PaCa-2, 2D) was < 1 nM and the IC50 [4] was < 50 nM.

With C=CC(=O)N1CCN(c2nc(NCCC(=O)N(C)C)nc3c(F)c(-c4ccc(F)c5sc(N)nc45)c(Cl)cc23)CC1 [Example 19, 3-((4-(4-Acryloylpiperazin-1-yl)-7-(2-Amino-7-Fluorobenzo [d] Thiazol-4-yl)-6-Chloro-8-Fluoroquinazolin-2-yl) Amino)-N,N-Dimethylpropanamide] the IC50 ([3]; Homo sapiens, MIA PaCa-2, 2D) was 28 nM and the IC50 [4] was 50 to 200 nM.

In the case of C=CC(=O)N1CCN(c2nc(OC[C@@H]3C[C@@H](F)CN3C)nc3c(F)c(-c4ccc(F)c5sc(N)nc45)c(Cl)cc23)CC1 [Example 27], the IC50 ([3]; 2D) is reported as < 1 nM and the IC50 [4] is reported as < 50 nM.

With C=CC(=O)N1CCN(c2c(C#N)c(NC[C@@H]3CCCN3C)nc3c(F)c(-c4ccc(F)c5sc(N)nc45)c(Cl)cc23)CC1 [Example 4, 4-(4-Piperazinylacryloylpiperazin-1-yl)-7-(2-Amino-7-Fluorobenzo[d]Thiazol-4-Yl)-6-Chloro-8-Fluoro-2-((((S)-1-Methylpyrrolin-2-yl)Methyl)Amino)Quinoline-3-Cyano] the IC50 ([3]; Homo sapiens, MIA PaCa-2, 2D) was 1.1 nM and the IC50 [4] was < 50 nM.

For C=C(F)C(=O)N1CCN(c2c(C#N)cnc3c(F)c(-c4ccc(F)c5sc(N)nc45)c(Cl)cc23)CC1 [Example 9, 7-(2-Amino-7-Fluorobenzo [d] Thiazol-4-yl) -6-Chloro-8-Fluoro-4-(4-(2-Fluoroacryloyl) Piperazin-1-yl) Quinolin-3-Cyano], the IC50 ([3]; Homo sapiens, MIA PaCa-2, 2D) was 362 nM and the IC50 [4] was 50 to 200 nM.

C=CC(=O)N1CCN(c2nc(OC[C@@H]3CCCN3C)nc3c(F)c(-c4ccc(F)c5sc(N)nc45)c(Cl)cc23)CC1CC#N (stereo partly drawn) [Example 12, 2-(1-acryloyl-4-(7-(2-Amino-7-Fluorobenzo [d] Thiazol-4-yl) -6-Chloro-8-Fluoro-2-(((S)-1-Methylpyrrolidin-2-yl) Methoxy) Quinazolin-4-yl) Piperazin-2-yl) Acetonitrile] showed an IC50 ([3]; Homo sapiens, MIA PaCa-2, 2D) of 19.3 nM and an IC50 [4] of 50 to 200 nM.

In the case of C=CC(=O)N1CCN(c2nc(OCCN(C)C)nc3c(F)c(-c4ccc(F)c5sc(N)nc45)c(Cl)cc23)CC1 [Example 5], the IC50 [1] is reported as < 200 nM, the IC50 [5] is reported as < 500 nM and the IC50 [6] is reported as < 500 nM. The IC50 [2] was < 200 nM, the IC50 [7] was < 100 nM and the IC50 [4] was < 50 nM.

Compound C=CC(=O)N1CCN(c2c(C#N)c(Cl)nc3c(F)c(-c4ccc(F)c5sc(N)nc45)c(Cl)cc23)CC1 [Example 7] has an IC50 ([3]; Homo sapiens, MIA PaCa-2, 2D) of 23.1 nM and an IC50 [4] of 50 to 200 nM.

Work on C=CC(=O)N1C[C@@H]2C(=O)N(C)c3cnc4c(F)c(-c5ccc(F)c6sc(N)nc56)c(Cl)cc4c3N2C[C@H]1C (single isomer, unassigned) [Example 17-2] yielded an IC50 ([3]; 2D) of 23.1 nM.

In the case of C=CC(=O)N1CC2C(=O)N(C)c3cnc4c(F)c(-c5c(O)cccc5F)c(Cl)cc4c3N2CC1C (single isomer, unassigned) [Comparative Compound 2-2, reference compound], the IC50 [4] is reported as > 1000 nM.

Compound C=CC(=O)N1CCN(c2nc(Cl)nc3c(F)c(-c4ccc(F)c5sc(N)nc45)c(Cl)cc23)CC1 [Example 6, 1-(4-(7-(2-Amino-7-Fluorobenzo [d] Thiazol-4-yl)-2,6-Dichloro-8-Fluoroquinazolin-4-yl) Piperazin-1-yl) Prop-2-Ene-1-One] has an IC50 ([3]; Homo sapiens, MIA PaCa-2, 2D) of 35 nM and an IC50 [4] of 50 to 200 nM.

For C=CC(=O)N1CCN(c2nc(OC[C@@H]3C[C@H](F)CN3C)nc3c(F)c(-c4ccc(F)c5sc(N)nc45)c(Cl)cc23)CC1 [Example 25], the IC50 [5] was < 500 nM, the IC50 [6] was < 500 nM and the IC50 [7] was < 100 nM. The IC50 [4] was < 50 nM.

C=CC(=O)N1CCN(c2c(C#N)cnc3c(F)c(-c4ccc(F)c5sc(N)nc45)c(Cl)cc23)CC1CC#N (centres unmarked) [Example 15, 4-(4-Acryloyl-3-(Cyanomethyl) Piperazin-1-yl)-7-(2-Amino-7-Fluorobenzo [d] Thiazol-4-yl)-6-Chloro-8-Fluoroquinolin-3-Cyano] was tested, and the IC50 ([3]; Homo sapiens, MIA PaCa-2, 2D) was 390 nM and the IC50 [4] was 200 to 1000 nM.

For C=CC(=O)N1CCN(c2c(C#N)cnc3c(F)c(-c4ccc(F)c5sc(N)nc45)c(Cl)cc23)C[C@H]1C [Example 16, 4-((R)-4-Acryloyl-3-Methylpiperazin-1-yl)-7-(2-Amino-7-Fluorobenzo [d] Thiazol-4-yl)-6-Chloro-8-Fluoroquinolin-3 -Cyano], the IC50 [1] was < 200 nM, the IC50 [5] was < 500 nM and the IC50 [6] was < 500 nM. The IC50 [2] was < 200 nM, the IC50 [7] was < 100 nM and the IC50 [4] was 50 to 200 nM.
